From US11912714B2, “Spiropyrrolidine derived antiviral agents” (ENANTA PHARMACEUTICALS, INC., priority 2021, dated 2024) come the findings set out here.

A word on the IC50: it is the concentration needed to halve the response being measured. In general, EC50 refers to the concentration giving half of the maximal effect.

The target of one test is SARS-CoV-2 3CL-protease (Severe acute respiratory syndrome coronavirus 2 (2019-nCoV) (SARS-CoV-2), UniProt P0DTD1). Description: SARS-CoV-2 3C-like (3CL) protease fluorescence assay (FRET). To be noted: recombinant SARS-CoV-2 3CL-protease 10 nM, 30 min preincubation, peptide substrate, duplicate. The format is biochemical.
Regarding `CC(C)C[C@H](C(=O)Nc1cc(F)cc(F)c1)C(=O)N(C)[C@@H](CC(C)C)C(=O)N1C[C@]2(C[C@H]1C#N)C(=O)Nc1ccccc12` (single isomer, unassigned) [Compound 4], the IC50 is below 100 nM.
The same measure, in the same setting: as for `CC(C)C[C@@H](C(=O)N1C[C@]2(C[C@H]1C#N)C(=O)Nc1ccccc12)N(C)C(=O)CC(=O)Nc1ccc(F)cc1F` [Compound 1], the figure is below 100 nM; as for `CC(C)CC(C(=O)Nc1cc(F)cc(F)c1)C(=O)N(C)[C@@H](CC(C)C)C(=O)N1C[C@]2(C[C@H]1C(N)=O)C(=O)Nc1ccccc12` (stereo partly shown) [Compound 2], below 100 nM.
In the case of `CC(C)C[C@@H](C(=O)N1C[C@]2(C[C@H]1C#N)C(=O)Nc1ccccc12)N(C)C(=O)CC(=O)OC(C)(C)C` [Compound 5], the IC50 was below 100 nM.
Still for that read-out and setting: as for `CC(C)C[C@@H](C(=O)N1C[C@]2(C[C@H]1C#N)C(=O)Nc1ccccc12)N(C)C(=O)CC(=O)c1cc2c(F)cc(F)cc2[nH]1` [Compound 6], the figure is below 100 nM.
With `CC(C)C[C@@H](C(=O)N1C[C@]2(C[C@H]1C#N)C(=O)Nc1ccccc12)N(C)C(=O)C(C)(C)C(=O)O` [Compound 7], the IC50 is above 1000 nM.
On the same count and under the same terms, in the case of `CC(C)C[C@@H](C(=O)N1C[C@]2(C[C@H]1C#N)C(=O)Nc1ccccc12)N(C)C(=O)C(C)(C)C(=O)Nc1cc(F)ccc1F` [Compound 8] it was 100 to 1000 nM; in that of `Cc1cccc(C)c1NC(=O)C(C)(C)C(=O)N(C)[C@@H](CC(C)C)C(=O)N1C[C@]2(C[C@H]1C#N)C(=O)Nc1ccccc12` [Compound 9], 100 to 1000 nM.
Still for that read-out and setting: in the case of `Cc1cccc(C)c1NC(=O)CC(=O)N(C)[C@@H](CC(C)C)C(=O)N1C[C@]2(C[C@H]1C#N)C(=O)Nc1ccccc12` [Compound 10] it was below 100 nM; in that of `CC(C)(C)C[C@H](NC(=O)C(C)(C)C(=O)Nc1cc(F)ccc1F)C(=O)N1C[C@]2(C[C@H]1C#N)C(=O)Nc1ccccc12` [Compound 11], below 100 nM.
With `Cc1cccc(C)c1NC(=O)C(C)(C)C(=O)N[C@@H](CC(C)(C)C)C(=O)N1C[C@]2(C[C@H]1C#N)C(=O)Nc1ccccc12` [Compound 12], the IC50 was below 100 nM.
The same measure, in the same setting: in the case of `Cc1cccc(C)c1NS(=O)(=O)CC(=O)N(C)[C@@H](CC(C)C)C(=O)N1C[C@]2(C[C@H]1C#N)C(=O)Nc1ccccc12` [Compound 13] it was below 100 nM; in that of `Cc1cccc(C)c1NC(=O)CS(=O)(=O)N(C)[C@@H](CC(C)(C)C)C(=O)N1C[C@]2(C[C@H]1C#N)C(=O)Nc1ccccc12` [Compound 14], below 100 nM; in that of `CC(C)C[C@@H](C(=O)N1C[C@]2(C[C@H]1C#N)C(=O)Nc1ccccc12)N(C)C(=O)CC(=O)NCC(C)(C)O` [Compound 15], below 100 nM.
As for `CC(C)C[C@@H](C(=O)N1C[C@]2(C[C@H]1C#N)C(=O)Nc1ccccc12)N(C)C(=O)CC(=O)Nc1ccccc1` [Compound 16], the IC50 was below 100 nM.
Consider `CC(C)C[C@@H](C(=O)N1C[C@]2(C[C@H]1C#N)C(=O)Nc1ccccc12)N(C)C(=O)CC(=O)NCc1ccccc1` [Compound 17], for which the IC50 is below 100 nM.
Same read-out and setting: in the case of `CC(C)C[C@@H](C(=O)N1C[C@]2(C[C@H]1C#N)C(=O)Nc1ccccc12)N(C)C(=O)CC(=O)N[C@H](C)c1ccccc1` [Compound 18] it was below 100 nM; in that of `CC(C)C[C@@H](C(=O)N1C[C@]2(C[C@H]1C#N)C(=O)Nc1ccccc12)N(C)C(=O)CC(=O)Nc1cccc2ccccc12` [Compound 19], below 100 nM; in that of `CC(C)C[C@@H](C(=O)N1C[C@]2(C[C@H]1C#N)C(=O)Nc1ccccc12)N(C)C(=O)CC(=O)N[C@@H](C)c1ccccc1` [Compound 20], 100 to 1000 nM.
Consider `CC(C)C[C@@H](C(=O)N1C[C@]2(C[C@H]1C#N)C(=O)Nc1ccccc12)N(C)C(=O)CC(=O)Nc1ccccn1` [Compound 21], for which the IC50 is below 100 nM.
On the same count and under the same terms, in the case of `CC(C)C[C@@H](C(=O)N1C[C@]2(C[C@H]1C#N)C(=O)Nc1ccccc12)N(C)C(=O)CC(=O)Nc1cccnc1` [Compound 22] it was below 100 nM; in that of `CC(C)C[C@@H](C(=O)N1C[C@]2(C[C@H]1C#N)C(=O)Nc1ccccc12)N(C)C(=O)CC(=O)Nc1ccncc1` [Compound 23], below 100 nM; in that of `CC(C)C[C@@H](C(=O)N1C[C@]2(C[C@H]1C#N)C(=O)Nc1ccccc12)N(C)C(=O)CC(=O)Nc1ccccc1F` [Compound 24], below 100 nM.
The same measure, in the same setting: in the case of `CC(C)C[C@@H](C(=O)N1C[C@]2(C[C@H]1C#N)C(=O)Nc1ccccc12)N(C)C(=O)CC(=O)Nc1cccc(F)c1` [Compound 25] it was below 100 nM; in that of `CC(C)C[C@@H](C(=O)N1C[C@]2(C[C@H]1C#N)C(=O)Nc1ccccc12)N(C)C(=O)CC(=O)Nc1ccc(F)cc1` [Compound 26], below 100 nM.
Still for that read-out and setting: as for `CC(C)C[C@@H](C(=O)N1C[C@]2(C[C@H]1C#N)C(=O)Nc1ccccc12)N(C)C(=O)CC(=O)Nc1cn[nH]c1` [Compound 27], the figure is below 100 nM.
As to `Cc1cccc(C)c1NC(=O)C1(C(=O)N[C@@H](CC(C)(C)C)C(=O)N2C[C@]3(C[C@H]2C#N)C(=O)Nc2ccccc23)CC1` [Compound 29], the IC50 is below 100 nM.
On the same count and under the same terms, as for `Cc1cccc(C)c1NC(=O)C1(C(=O)N[C@@H](CC(C)C)C(=O)N2C[C@]3(C[C@H]2C#N)C(=O)Nc2ccccc23)CCCC1` [Compound 30], the figure is below 100 nM.
Same read-out and setting: in the case of `CC(C)C[C@@H](C(=O)N1C[C@]2(C[C@H]1C#N)C(=O)Nc1ccccc12)N(C)C(=O)CC(=O)NC[C@H](C)O` [Compound 31] it was below 100 nM; in that of `CC(C)C[C@@H](C(=O)N1C[C@]2(C[C@H]1C#N)C(=O)Nc1ccccc12)N(C)C(=O)CC(=O)NC[C@@H](C)O` [Compound 32], below 100 nM.
On to `CC(C)C[C@@H](C(=O)N1C[C@]2(C[C@H]1C#N)C(=O)Nc1ccccc12)N(C)C(=O)CC(=O)N[C@H](C)CO` [Compound 33], for which the IC50 was below 100 nM.
On the same count and under the same terms, in the case of `CC(C)C[C@@H](C(=O)N1C[C@]2(C[C@H]1C#N)C(=O)Nc1ccccc12)N(C)C(=O)CC(=O)N[C@@H](C)CO` [Compound 34] it was below 100 nM.
For the compound `CC(C)C[C@@H](C(=O)N1C[C@]2(C[C@H]1C#N)C(=O)Nc1ccccc12)N(C)C(=O)CC(=O)NCC(F)F` [Compound 35], the IC50 was below 100 nM.
As to `CC(C)C[C@@H](C(=O)N1C[C@]2(C[C@H]1C#N)C(=O)Nc1ccccc12)N(C)C(=O)CC(=O)N[C@@H]1CCN(C(=O)OC(C)(C)C)C1` [Compound 36], the IC50 is 100 to 1000 nM.
For `CC(C)C[C@@H](C(=O)N1C[C@]2(C[C@H]1C#N)C(=O)Nc1ccccc12)N(C)C(=O)CC(=O)N[C@H]1CCN(C(=O)OC(C)(C)C)C1` [Compound 37], the half-maximal inhibitory concentration (IC50) was below 100 nM.
`Cc1cccc(C)c1NC(=O)C1(C(=O)N[C@@H](CC(C)C)C(=O)N2C[C@]3(C[C@H]2C#N)C(=O)Nc2ccccc23)CCOCC1` [Compound 38]: the IC50 was below 100 nM.
Still for that read-out and setting: in the case of `CC(C)C[C@H](NC(=O)C1(C(=O)NCC(C)(C)O)CCC1)C(=O)N1C[C@]2(C[C@H]1C#N)C(=O)Nc1ccccc12` [Compound 39] it was below 100 nM.
On the same count and under the same terms, as for `Cc1cccc(C)c1NC(=O)C1(C(=O)N[C@@H](CC(C)(C)C)C(=O)N2C[C@]3(C[C@H]2C#N)C(=O)Nc2ccccc23)CCOCC1` [Compound 40], the figure is below 100 nM.
On the same count and under the same terms, in the case of `CC(C)C[C@@H](C(=O)N1C[C@]2(C[C@H]1C#N)C(=O)Nc1ccccc12)N(C)C(=O)CC(=O)N[C@@H]1CCC[C@@H]1O` [Compound 41] it was below 100 nM; in that of `CC(C)C[C@@H](C(=O)N1C[C@]2(C[C@H]1C#N)C(=O)Nc1ccccc12)N(C)C(=O)CC(=O)N[C@H]1CCC[C@@H]1O` [Compound 42], below 100 nM.
Consider `CC(C)C[C@@H](C(=O)N1C[C@]2(C[C@H]1C#N)C(=O)Nc1ccccc12)N(C)C(=O)CC(=O)N[C@@H]1CCC[C@H]1O` [Compound 43], for which the IC50 is below 100 nM.
`CC(C)C[C@@H](C(=O)N1C[C@]2(C[C@H]1C#N)C(=O)Nc1ccccc12)N(C)C(=O)CC(=O)N[C@H]1CCC[C@H]1O` [Compound 44]: the IC50 is below 100 nM.
The same measure, in the same setting: as for `CC(C)C[C@@H](C(=O)N1C[C@]2(C[C@H]1C#N)C(=O)Nc1ccccc12)N(C)C(=O)CC(=O)N[C@@H]1CC[C@H](O)C1` [Compound 45], the figure is below 100 nM; as for `CC(C)C[C@@H](C(=O)N1C[C@]2(C[C@H]1C#N)C(=O)Nc1ccccc12)N(C)C(=O)CC(=O)N[C@H]1CC[C@H](O)C1` [Compound 46], below 100 nM.
On the same count and under the same terms, in the case of `CC(C)C[C@@H](C(=O)N1C[C@]2(C[C@H]1C#N)C(=O)Nc1ccccc12)N(C)C(=O)CC(=O)N[C@@H]1CC[C@@H](O)C1` [Compound 47] it was below 100 nM; in that of `CC(C)C[C@@H](C(=O)N1C[C@]2(C[C@H]1C#N)C(=O)Nc1ccccc12)N(C)C(=O)CC(=O)N[C@H]1CC[C@@H](O)C1` [Compound 48], below 100 nM.
Same read-out and setting: in the case of `CC(C)C[C@@H](C(=O)N1C[C@]2(C[C@H]1C#N)C(=O)Nc1ccccc12)N(C)C(=O)CC(=O)N[C@@H](C)C(F)(F)F` [Compound 49] it was below 100 nM; in that of `CC(C)C[C@@H](C(=O)N1C[C@]2(C[C@H]1C#N)C(=O)Nc1ccccc12)N(C)C(=O)CC(=O)N[C@H](C)C(F)(F)F` [Compound 50], below 100 nM.

For the next test, the system named is 229E human corona virus (hCoV). Description: 229E live virus assay (CPE, ATPlite) in MRC-5 cells. The format is cell-based, hCoV-229E. To be noted: Human coronavirus 229E, MRC5, 144 h, read-out: 229E EC50. For orientation: Cellular ATP, detected with luciferase, serves as a proxy for viable cell number.
Take `CC(C)C[C@H](C(=O)Nc1cc(F)cc(F)c1)C(=O)N(C)[C@@H](CC(C)C)C(=O)N1C[C@]2(C[C@H]1C#N)C(=O)Nc1ccccc12` (single isomer, unassigned) [Compound 4]: the EC50 was below 100 nM.
The same measure, in the same setting: as for `CC(C)C[C@@H](C(=O)Nc1cc(F)cc(F)c1)C(=O)N(C)[C@@H](CC(C)C)C(=O)N1C[C@]2(C[C@H]1C#N)C(=O)Nc1ccccc12` [Compound 3], the figure is 100 to 1000 nM.

Staying with this test, now noted: Human coronavirus 229E, MRC5, 144 h; MRC-5 cells, MOI 0.05, 6 days at 34° C., ATPlite readout, duplicate; read-out: 229E EC50.
Consider `CC(C)C[C@@H](C(=O)N1C[C@]2(C[C@H]1C#N)C(=O)Nc1ccccc12)N(C)C(=O)CC(=O)Nc1ccc(F)cc1F` [Compound 1], for which the EC50 was below 100 nM.
For `CC(C)CC(C(=O)Nc1cc(F)cc(F)c1)C(=O)N(C)[C@@H](CC(C)C)C(=O)N1C[C@]2(C[C@H]1C(N)=O)C(=O)Nc1ccccc12` (stereo partly shown) [Compound 2], the EC50 lay within 100 to 1000 nM.
On the same count and under the same terms, as for `CC(C)C[C@@H](C(=O)N1C[C@]2(C[C@H]1C#N)C(=O)Nc1ccccc12)N(C)C(=O)CC(=O)OC(C)(C)C` [Compound 5], the figure is below 100 nM; as for `CC(C)C[C@@H](C(=O)N1C[C@]2(C[C@H]1C#N)C(=O)Nc1ccccc12)N(C)C(=O)CC(=O)c1cc2c(F)cc(F)cc2[nH]1` [Compound 6], below 100 nM.
Same read-out and setting: as for `CC(C)(C)C[C@H](NC(=O)C(C)(C)C(=O)Nc1cc(F)ccc1F)C(=O)N1C[C@]2(C[C@H]1C#N)C(=O)Nc1ccccc12` [Compound 11], the figure is 100 to 1000 nM.
